Results from ChEMBL document CHEMBL1128835, “The antitumor activity of novel pyrazoloquinoline derivatives” (Bioorg Med Chem Lett, 1995).

What was measured:
Mus musculus [1] = species on record: Mus musculus; experiment: Tested for tumor growth inhibition in mice; format: functional
Mus musculus [2] = experiment: In vivo antitumor activity was measured as the maximum dose tolerated by murine when administered intravenously; format: functional
P388 = experiment: In vitro cytotoxicity was evaluated following 1 hour transient exposure of P388 mouse leukemia cells to the compound; format: functional, cell-based; details: P388, 1 h
DNA topoisomerase II = DNA topoisomerase II (Homo sapiens, UniProt P11388+Q02880); experiment: Compound was tested for topoisomerase II inhibition in purified HeLa cells by SDS/K+ precipitation method; format: cell-based
Mus musculus [3] = experiment: In vivo antitumor activity was measured as the maximum dose tolerated by murine when administered subcutaneously; format: functional

SMILES | T/C (Mus musculus [1]) [%] | MTD (Mus musculus [2]) [mg/kg] | IC50 (P388) [µM] | EC50 (DNA topoisomerase II) [µM] | MTD (Mus musculus [3]) [mg/kg]
Cc1cc(-c2c(F)cc3c4nn(C5CCN(C)CC5)c(=O)c-4cn(C4CC4)c3c2F)cc(C)n1 | 24 | 128 | 0.094 | 3.2 | –
CC(=O)N[C@H]1CC[C@@H](n2nc3c4cc(F)c(-c5cc(C)nc(C)c5)c(F)c4n(C4CC4)cc-3c2=O)CC1 | – | – | 1.3 | 7.4 | –
Cc1cc(-c2c(F)cc3c4nn(CCN(C)C)c(=O)c-4cn(C4CC4)c3c2F)cc(C)n1 | 8 | 34 | 0.26 | 2.6 | –
Cc1cc(-c2c(F)cc3c4nn(C5CCCCC5)c(=O)c-4cn(C4CC4)c3c2F)cc(C)n1 | 18 | 140 | 0.68 | 0.9 | –
Cc1cc(-c2c(F)cc3c4nn([C@H]5CC[C@H](N(C)C)CC5)c(=O)c-4cn(C4CC4)c3c2F)cc(C)n1 | 2 | 390 | 0.26 | 4.4 | –
Cc1cc(-c2c(F)cc3c4n[nH]c(=O)c-4cn(C4CC4)c3c2F)cc(C)n1 | >100 | – | 7.9 | 11 | 2500
Cc1cc(-c2c(F)cc3c4nn(C5CCC(C)CC5)c(=O)c-4cn(C4CC4)c3c2F)cc(C)n1 (centres undefined) | – | – | 1.4 | 3.1 | –
Cc1cc(-c2c(F)cc3c4nn(CCCN(C)C)c(=O)c-4cn(C4CC4)c3c2F)cc(C)n1 | 35 | 64 | 0.16 | 1.7 | –
Cc1cc(-c2c(F)cc3c4nn([C@H]5CC[C@@H](N)CC5)c(=O)c-4cn(C4CC4)c3c2F)cc(C)n1 | 21 | 110 | 0.44 | 0.5 | –
Cc1cc(-c2c(F)cc3c4nn(C)c(=O)c-4cn(C4CC4)c3c2F)cc(C)n1 | – | – | 3.1 | 5.9 | –
Cc1cc(-c2c(F)cc3c4nn(CCO)c(=O)c-4cn(C4CC4)c3c2F)cc(C)n1 | – | – | 2 | 6.4 | –
CCOC(=O)Cn1nc2c3cc(F)c(-c4cc(C)nc(C)c4)c(F)c3n(C3CC3)cc-2c1=O | – | – | 5.1 | 6.1 | –
Cc1cc(-c2c(F)cc3c4nn(CCNCCO)c(=O)c-4cn(C4CC4)c3c2F)cc(C)n1 | 42 | 1410 | 1.3 | 3.3 | –
Cc1cc(-c2c(F)cc3c4nn(CC(=O)O)c(=O)c-4cn(C4CC4)c3c2F)cc(C)n1 | – | – | > 200 | 10 | –
Cc1cc(-c2c(F)cc3c4nn(-c5ccccc5)c(=O)c-4cn(C4CC4)c3c2F)cc(C)n1 | >100 | – | 1.8 | – | 635
Cc1cc(-c2c(F)cc3c4nn([C@H]5CC[C@@H](N(C)C)CC5)c(=O)c-4cn(C4CC4)c3c2F)cc(C)n1 | 5 | 63 | 0.067 | 1.7 | –
CC(=O)N[C@H]1CC[C@H](n2nc3c4cc(F)c(-c5cc(C)nc(C)c5)c(F)c4n(C4CC4)cc-3c2=O)CC1 | – | – | 1.2 | 9.8 | –
Cc1cc(-c2c(F)cc3c(=O)ccn(C4CC4)c3c2F)cc(C)n1 | >100 | – | 15 | – | 1950
Cc1cc(-c2c(F)cc3c4nn(C5CCOCC5)c(=O)c-4cn(C4CC4)c3c2F)cc(C)n1 | – | – | 0.29 | 1.7 | –
Cc1cc(-c2c(F)cc3c4nn([C@H]5CC[C@H](N)CC5)c(=O)c-4cn(C4CC4)c3c2F)cc(C)n1 | 42 | 550 | 1.5 | 4.2 | –
COc1cc(NS(C)(=O)=O)ccc1Nc1c2ccccc2nc2ccccc12 [AMSACRINE] | 0 | 48 | 0.15 | – | –
COc1cc([C@@H]2c3cc4c(cc3[C@@H](O[C@@H]3O[C@@H]5CO[C@@H](C)O[C@H]5[C@H](O)[C@H]3O)[C@H]3COC(=O)[C@H]23)OCO4)cc(OC)c1O [ETOPOSIDE] | 3 | 96 | – | – | –
Cc1cc(-c2c(F)cc3c(=O)c(C(=O)O)cn(C4CC4)c3c2F)cc(C)n1 [WIN-57294] | 31 | – | – | – | 600
